This is an account of results in patent US4092420A, “Novel soft N-chloroamino alcohol derivatives exhibiting antibacterial activity” (INTERx Research Corporation, priority 1977, dated 1978).

Common to all, as to assay: Minimal inhibitory concentration (MIC), Example V
Holding throughout (assay type): cell-based

Assay [1] concerns S. pyogenes. Conditions: Streptococcus pyogenes.
In assay [2] the test system is A. niger. Conditions: Aspergillus niger. The gist of the method:
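Compound serially diluted twofold (1:2 to 1:128) from a usual 500–1000 mcg/ml start, inoculated with organism in double-strength medium. For fungi, Maltose Peptone broth in tape-sealed trays, 25° C for 5 days; MIC in ppm is the lowest concentration with no visible turbidity.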

Assay [3] deals with E. coli. Conditions: Escherichia coli. The gist of the method:
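Test strain Escherichia coli ATCC 10536; minimal inhibitory concentration given in parts per million.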

Where only a bound is given, the exact number is not on record here.

On to `CC(C)(COC(=O)C(C)(C)C)NCl` [IV c, 2-N-Chloroamino-2-methyl-1-propyl 2,2-dimethylproprionate], for which the minimum inhibitory concentration (MIC) in assay [1] was more than 125 µg/mL; in assay [2], more than 250 µg/mL; in assay [3], more than 250 µg/mL.

As usually defined, the MIC is the lowest concentration that inhibits growth of the organism. A lower MIC goes with greater potency.
